Test results reported in patent US20130296239A1, “Material for Wound Healing and Skin Reconstruction” (3-D Matrix, Ltd., priority 2007, published 2013).
“And” between values parts separate entries of the source, which are not always exact repeats. Identical values can stand only once.

Key:
[1] = test system: skin wound model mice (1 cm×1 cm wound); assay: Skin wound model of mice: wound area and observation of the affected area; type: in vivo, NTaC:NIHS-Foxn1 <nu> type nude mice
Experimental: 30 NTaC:NIHS-Foxn1 type nude mice (female, weight ˜20 g) were used as experimental animals. The mice were housed in the condition of a temperature of 17 to 26° C., a relative humidity of 30 to 70%, a 12-hour light/dark cycle, minimum of ten fresh air changes/hour, and diet was provided once daily and the mice had access to water ad libitum.
Anesthesia was induced by placing the mice in a chamber filled with isoflurane at 2.5 to 4%, and maintained with isoflurane delivered through a nose cone at 0.5 to 2.5%.
All residual hair was removed from the upper right dorsum, and the operative area was cleaned with three alternating scrubs of povidone-iodine scrub and 70% alcohol. Once the alternating scrubs were complete, a final application of povidone-iodine scrub was applied and allowed to dry. The area was draped for aseptic surgery.
Forceps were used to pinch up a fold of skin (at what would become the lower right corner of the wound), and scissors were used to separate the skin and create a 1 cm×1 cm wound. Blood was soaked up with a sterile gauze pad.
(b-1) The centrifuge tube was placed into a cool water bath. The bath was sonicated for 30 min, and then the contents of the tube were vortexed for one minute. Air bubbles were then removed via centrifugation (3000 rpm, 1 min). Vortexing and centrifugation were repeated as necessary to remove all bubbles. The 1% PuraMatrix (trade mark) solution was prepared and administered to animals in test group-1.
(b-2) The 5 ng/μL hbFGF PBS solution (20 μL) was added to the sterile centrifuge tube previously containing 1 mL of 1% PuraMatrix (trade mark). The mixture was then vortexed to homogenize. The centrifuge tube was placed into the cool water bath and sonicated for 30 min, vortexed for 1 min, then centrifuged at room temperature (3000 rpm, 1 min) to remove air bubbles. Vortexing and centrifugation were repeated as necessary to remove all air bubbles. The PuraMatrix+hbFGF solution obtained was administered to animals in the test group-2.
The 30 skin wound model mice produced in (a) were divided into three groups of 10 mice, and treated according to the scheme in Table 1 immediately after the surgical procedure. The day when surgical procedure was performed (wound creation) was regarded as Day 0. Observation of wound area was performed at just before a treatment on Day 0 (FIG. 1), Day 7 (FIG. 2), Day 14 (FIG. 3), Day 21 (FIG. 4) and Day 28 (FIG. 5).
Baseline wound measurements were recorded prior to the application of the first dressing. Weekly measurements were obtained by removing the dressing of self-assembling hydropeptide gel (for the control group, a petroleum jelly impregnated gauze only) and exposing the wound site. A ruler was placed adjacent to the wound area and digital photographs were obtained, thereafter, the wound was re-dressed with the self-assembling hydropeptide gel (for the control group, a petroleum jelly impregnated gauze only). Wound area was calculated using ImageJ version 1.37 at the NIH website.

[2] = test system: wound area of skin wound model mice; assay: Histopathological observation of wound area on Day 28; type: in vivo, nude mice; design: key to Vascularization: 0: Decreased vascularity compared to normal dermis.; 1: Dermal vascularity within normal limits.; 2: Minimally increased prominence of dermal or wound capillaries.; 3: Mild increase in prominence of dermal or wound capillaries.; 4: Moderate increase in prominence of dermal or wound capillaries; key to Collagen quality: 0: Lack of fibroplasia and/or collagen in wound.; 1: Minimal to mild fibroplasia in the granulation tissue of the wound.; 2: Moderate fibroplasia and collagen throughout the wound.; 3: Superficial portion of the wound has dense collagen similar to normal dermal collagen.; 4: Dense collagen throughout the wound; key to Inflammation: 0: No increase in inflammatory cells (within normal limits for dermis of nude mice).; 1: Minimal increase in inflammatory cells.; 2: Mild increase in inflammatory cells.; 3: Moderate increase in inflammatory cells.; 4: Marked increase in inflammatory cells; key to Epithelization: 0: No re-epithelization.; 1: Partial re-epithelization. (Wound surface is not completely covered by epithelial cells.); 2: Re-epithelization across the full surface of the wound, but the epithelium is not a stratified squamous epithelium with multiple strata; 3: Re-epithelization across the full surface of the wound with a stratified squamous epithelium and keratinization, but there is evidence of active remodeling; 4: Complete re-epithelization with a keratinized stratified squamous epithelium with remodeling and organization within normal limits
Experimental: In order to evaluate parameters of wound healing in the skin of nude mice from three groups, histopathological examination was carried out.
After the observation on Day 28, each mouse was sacrificed and a paraffin block containing the wound area, through the center of each wound perpendicular to the apparent longest axis was produced. A hematoxylin and eosin-stained and a trichrome-stained histologic sections were prepared from each block. Using the H&E-stained section, the epithelization, vascularization, and inflammation associated with the wound were ranked, and using the trichrome-stained section the amount and quality of collagen in the area of the wound were evaluated. The results of these evaluations were shown in Table 2-1 (control group), Table 2-2 (test group-1), and Table 2-3 (test group-2).
Definitions for each score are as follows.
0=No re-epithelization. 1=Partial re-epithelization. (Wound surface is not completely covered by epithelial cells.) 2=Re-epithelization across the full surface of the wound, but the epithelium is not a stratified squamous epithelium with multiple strata (stratum basale, stratum spinosum, stratum granulosum). 3=Re-epithelization across the full surface of the wound with a stratified squamous epithelium and keratinization, but there is evidence of active remodeling in the form of apoptotic or necrotic cells or dyskeratosis, or multiple mitotic figures, or irregular thickness or irregular strata (hyperplasia). 4=Complete re-epithelization with a keratinized stratified squamous epithelium with remodeling and organization within normal limits. (The only alteration is lack of hair follicles and adenexia in the dermis.)
0=Decreased vascularity compared to normal dermis. 1=Dermal vascularity within normal limits. […] Increased prominence may be due to increased number, dilation (congestion or hyperemia), or increased size. 3=Mild increase in prominence of dermal or wound capillaries. 4=Moderate increase in prominence of dermal or wound capillaries. <Inflammation> Inflammation consisted of increased number of neutrophils and macrophages in the dermis and scar tissue beneath the epidermis. […] 0=No increase in inflammatory cells (within normal limits for dermis of nude mice). 1=Minimal increase in inflammatory cells. Inflammation tends to be multifocal, perivascular. 2=Mild increase in inflammatory cells. Inflammation tends to be multifocal, perivascular. 3=Moderate increase in inflammatory cells. 4=Marked increase in inflammatory cells.
0=Lack of fibroplasia and/or collagen in wound. 1=Minimal to mild fibroplasia in the granulation tissue of the wound. 2=Moderate fibroplasia and collagen throughout the wound. 3=Superficial portion of the wound has dense collagen similar to normal dermal collagen. 4=Dense collagen throughout the wound. There are relatively fewer fibroblasts and the collagen is slightly denser than normal dermis.
Depth of collagen (μm) beneath the epithelium in the wound was estimated at the thickest portion of the collagen using an ocular micrometer that was calibrated with an objective micrometer (×10).

[3] = liquid when pH is not higher than 5.0; cited from earlier work
[4] = Day 28, compared to control group
[5] = rank score, Day 28, H&E-stained section, one value per mouse

Ac-(RADA)4-CONH2 [PuraMatrix]
wound area ([1]; Day 7, compared to control group (FIG. 2)): decreased drastically | healing rate (ratio of the wound area to the area when wound created, FIG. 6) ([1]; Day 7 and Day 14, compared to control group, 100 μL to wound area): healing more quickly than those in the control group | healing of the wound area ([1]; Day 14 (FIG. 3)): almost complete | healing of the wounds ([1]; Day 21 (FIG. 4)): completely healed | puckering of skin ([1]; Day 21, compared to control group (FIG. 4)): less puckering of skin | scar ([1]; Day 28, observation before dissection): visible in all animals | wound contraction noted ([1]; Day 28, observation before dissection, all animals in control group (FIG. 5)): 8/10 | overall wound healing effect ([1]; conclusion from Day 0-28 observations): significant healing effect visibly recognized | Collagen depth ([2]; Day 28, beneath the epithelium at thickest portion of collagen, one value per mouse): 550 μm (2×) and 250 μm (3×) and 470 μm and 500 μm (2×) and 540 μm and 200 μm | ranking of epithelization and vascularization across groups ([2]; Day 28, compared across the three groups): little difference | mice with an inflammation rank 0 [2, 4]: larger numbers of mice | mice with dense collagen throughout the wound scar [2, 4]: larger numbers of mice | typical state of wound area structure in pathological section ([2]; Day 28, photomicrograph, compared to control group (FIG. 8, FIG. 9)): there is dense collagen so that the dermis 2 is slightly more stained | mice with rank scores 4, 1, 0, 4 (most advanced wound healing) ([2]; Day 28, no mice in control group): one | Epithelization [2, 5]: 4 (5×) and 3 (5×) | Inflammation [2, 5]: 1 (5×) and 0 (3×) and 2 (2×) | Vascularization [2, 5]: 2 (6×) and 1 (4×) | Collagen quality ([2]; rank score, Day 28, trichrome-stained section, one value per mouse): 3 (3×) and 4 (7×) | pH at which the peptide solution forms a gel (self-assembles into nanofibers) [3]: higher than 5.0
